Reference: paper PMC10539350 (Scientific Reports, 2023)
≈ marks a conversion by molar mass, not a printed value. Read-outs that look alike come from different tables or passages of the source.

Assays:
[1] = IAM-HPLC affinity to phospholipids (CHI protocol); assay type: physicochemical; settings: for log kIAM: 0.045*CHIIAM+0.42; for CHIIAM: IAM column, pH 7.4, ACN gradient
[2] = physchem; assay type: physicochemical; settings: for CHIC18: C18 column, pH 7.4, ACN gradient; for chromatographic logD: pH 7.4
Source text: For HPLC analyses Prominence-1 LC-2030C 3D HPLC system (Shimadzu, Japan) equipped with a DAD detector and controlled by LabSolution system (version 5.90 Shimadzu, Japan) was used. Two different chromatography columns packed with surface-modified silica were utilized in this study: • Octyldecylsilane (C18 Hypersil GOLD™; 50 mm × 4.6 mm; 5.0 µm; Thermo Scientific, USA) • Immobilized artificial membrane (IAM.PC.DD2; 10 × 4.6 mm × 10.0 µm; Regis Technologies; USA).
Both columns were equipped with guard precolumn containing the same silica-modified bed as the main column. All measurements were carried out using the protocol proposed by Valko[19] and co-workers and adopted in our laboratory. Briefly, methods developed by Valko offered the determination of Chromatographic Hydrophobicity Index (CHI) indices using one gradient elution experiment. Ammonium acetate buffer (50 mM, pH 7.4) and acetonitrile (ACN) were used as the mobile phase at a 1.5 mL/min flow rate. The gradient range varies depending on the column type: • For C18 starting from 2 to 98% ACN in 5.25 min. The maximum concentration of ACN was applied for 1.75 min. • For IAM starting from 0 to 85% ACN in 5.25 min. The maximum concentration of ACN was used for 0.5 min.
During the chromatographic separation, the temperature was stable at 30 °C. […] The injected volume was 10 μL, whereas the concentration of solutes was at level 100 μg/mL. All studied compounds were dissolved in DMSO. Each chromatographic experiments run in triplicate. […] Retention times for studied molecules and reference standards are collected in supplementary materials, Tables S1, S2 and S3, respectively.
Next, the CHIC18 values were converted into lipophilicity indices CHI log D using Eq. […]

[3] = system: M. tuberculosis H37Rv; experiment: tuberculostatic activity, broth microdilution MIC (Alamar blue); assay type: cell-based, Mycobacterium tuberculosis; settings: for MIC: Mycobacterium tuberculosis, 504 h, M. tuberculosis H37Rv, read-out: Minimal inhibitory concentration; for activity in words: toward standard and susceptible strains
[4] = system: M. tuberculosis SIR Ciprofloxacin susceptible 168/22; experiment: as above; assay type: cell-based, Mycobacterium tuberculosis; settings: for MIC: Mycobacterium tuberculosis, read-out: Minimal inhibitory concentration; for activity in words: susceptible bacteria
[5] = cited from earlier work
[6] = cited from earlier work; remark: listed apart in the source
[7] = system: human immortal keratinocyte cell line (HaCaT); settings: cited from earlier work
[8] = system: human colon cancer cells (HCT-116); settings: cited from earlier work
[9] = system: Mycobacterium tuberculosis strains (H37Rv, 22/22, 168/22); experiment: synergism-antagonism evaluation, summary over all strains; assay type: cell-based
[10] = system: M. tuberculosis H37Rv; assay type: cell-based, Mycobacterium tuberculosis; settings: derivative 6 at 1/2 MIC
[11] = 21 days 37 °C, Middlebrook 7H9 + OADC
[12] = calibration set on the IAM column, CHI index, Table S3 ref 19
[13] = calibration set on the C18 column, literature CHI index, Table S2 ref 19
[14] = determined in an earlier study ref 15

SMILES	log kIAM [1]	CHIIAM [1]	CHIC18 [2]	chromatographic logD [2]	MIC [3, 11] [µg/mL]	MIC [4] [µg/mL]	other results
CC1CCC(C(C)C)C(OC(=O)CCCCCOC(=O)c2cn(C3CC3)c3cc(N4CCN(CCCCCC(=O)OC5CC(C)CCC5C(C)C)CC4)c(F)cc3c2=O)C1 (stereo not drawn) [Compound 8]	3.02	57.85	179.66	7.97	4	4 (≈ 4.78 µM)	–
Cc1ccc(C(C)C)c(OC(=O)CN2CCN(c3cc4c(cc3F)c(=O)c(C(=O)O)cn4C3CC3)CC2)c1 [Compound 10]	–	42.88	111.26	4.37	1	1 (≈ 1.92 µM)	–
Cc1ccc(C(C)C)c(OC(=O)CCCCN2CCN(c3cc4c(cc3F)c(=O)c(C(=O)O)cn4C3CC3)CC2)c1 [Compound 13]	2.53	46.96	117.28	4.69	2	2 (≈ 3.55 µM)	–
CC1CCC(C(C)C)C(OC(=O)CN2CCN(c3cc4c(cc3F)c(=O)c(C(=O)O)cn4C3CC3)CC2)C1 (stereo not drawn) [Compound 2]	2.53	46.88	127.44	5.22	0.5	2 (≈ 3.79 µM)	–
CCCCCC(=O)c1ccccc1 [Hexanophenone]	–	–	–	–	–	–	CHIIAM [5, 12]: 41.8
CC1CCC(C(C)C)C(OCC(=O)N2CCN(c3cc4c(cc3F)c(=O)c(C(=O)O)cn4C3CC3)CC2)C1 (stereo not drawn) [Compound 1]	2.47	45.54	112.24	4.43	32	256 (≈ 485 µM)	activity in words [3]: not active
Cc1ccc(C(C)C)c(OC(=O)CCCCCOC(=O)c2cn(C3CC3)c3cc(N4CCN(CCCCCC(=O)Oc5cc(C)ccc5C(C)C)CC4)c(F)cc3c2=O)c1 [Compound 16]	2.64	49.33	144.84	6.14	4	4 (≈ 4.85 µM)	–
CC1CCC(C(C)C)C(OC(=O)CCCCOC(=O)c2cn(C3CC3)c3cc(N4CCN(CCCCC(=O)OC5CC(C)CCC5C(C)C)CC4)c(F)cc3c2=O)C1 (stereo not drawn) [Compound 7]	2.92	55.54	170.54	7.49	–	256 (≈ 317 µM)	MIC ([3]; […]): 256 µg/mL (≈ 317 µM); activity in words [3]: not active
CCC(=O)c1ccccc1 [Propiophenone]	–	–	–	–	–	–	CHIIAM [5, 12]: 25.9; CHIC18 [6, 13]: 77,5
CC(=O)Nc1ccc(O)cc1 [Paracetamol]	–	–	–	–	–	–	CHIIAM [5, 12]: 2.9
CCCCCCC(=O)c1ccccc1 [Heptanophenone]	–	–	–	–	–	–	CHIIAM [5, 12]: 45.7
Cc1ccc(C(C)C)c(OC(=O)CCCCCN2CCN(c3cc4c(cc3F)c(=O)c(C(=O)O)cn4C3CC3)CC2)c1 [Compound 14]	2.68	50.29	121.48	4.91	0.5	0.5 (≈ 0.866 µM)	–
Cc1ccc(C(C)C)c(OC(=O)CCCOC(=O)c2cn(C3CC3)c3cc(N4CCN(CCCC(=O)Oc5cc(C)ccc5C(C)C)CC4)c(F)cc3c2=O)c1 [Compound 15]	2.47	45.54	135.98	5.67	64	64 (≈ 83.3 µM)	activity in words [3]: not active
[H]/N=C(/N)N[C@H]1[C@H](O)[C@@H](O)[C@H](O[C@@H]2O[C@@H](C)[C@](O)(C=O)[C@H]2O[C@@H]2O[C@@H](CO)[C@H](O)[C@@H](O)[C@@H]2NC)[C@@H](N/C(N)=N\[H])[C@@H]1O [Streptomycin, reference compound]	–	–	–	–	0.25	64 (≈ 110 µM)	activity in words [4]: poor activity
CC(C)[C@@H]1CC[C@@H](C)C[C@H]1OC(=O)CCCCCN1CCN(c2cc3c(cc2F)c(=O)c(C(=O)O)cn3C2CC2)CC1 [Compound 6, 1‐cyclopropyl‐6‐fluoro‐7‐{4‐[6‐((1R,2S,5R)‐2‐isopropyl‐5‐methylcyclohexyloxy)‐6‐oxohexyl]piperazin‐1‐yl}‐4‐oxo‐1,4‐dihydroquinoline‐3‐carboxylic acid]	2.74	51.47	139.48	5.86	1	1 (≈ 1.71 µM)	cytotoxic effect [7]: no cytotoxic effect; IC50 ([8]; HCT-116, MTT assay ref 10): 29.5 ± 2.1 µM; selectivity index ([8]; HCT-116 versus HaCaT ref 10): 3.4; FICI values, derivative 6 with Linezolid [9]: 1.0; interaction type from FICI [9]: indifference (key: synergism (FICI ≤ 0.5); indifference (> 0.5 FICI ≤ 4); antagonism (FICI > 4))
CC(=O)NC[C@H]1CN(c2ccc(N3CCOCC3)c(F)c2)C(=O)O1 [Linezolid, reference compound]	–	–	–	–	0.003	0.007 (≈ 0.0207 µM)	MIC for reference drug in the presence of derivative 6 [10]: 0.0015 µg/mL
CC(=O)c1ccccc1 [Acetophenone]	–	–	–	–	–	–	CHIIAM [5, 12]: 17.2; CHIC18 [6, 13]: 65,1

SMILES	log kIAM [1]	CHIIAM [1]	CHIC18 [2]	chromatographic logD [2]	MIC [3, 11] [µg/mL]	MIC [4] [µg/mL]	other results
Cc1ccc(C(C)C)c(OC(=O)CCCN2CCN(c3cc4c(cc3F)c(=O)c(C(=O)O)cn4C3CC3)CC2)c1 [Compound 12]	2.48	45.75	115.60	4.6	0.5	0.5 (≈ 0.91 µM)	–
CC[C@@H](CO)NCCN[C@@H](CC)CO [Ethambutol, reference compound]	–	–	–	–	0.25	0.5 (≈ 2.45 µM)	–
CCCCCCCC(=O)c1ccccc1 [Octanophenone]	–	–	–	–	–	–	CHIIAM [5, 12]: 49.4
Cc1ccc(C(C)C)c(OC(=O)CCN2CCN(c3cc4c(cc3F)c(=O)c(C(=O)O)cn4C3CC3)CC2)c1 [Compound 11]	2.42	44.44	113.95	4.52	1	1 (≈ 1.87 µM)	–
CC(=O)Nc1ccccc1 [Acetanilidine]	–	–	–	–	–	–	CHIIAM [5, 12]: 11.5
c1ccc2[nH]cnc2c1 [Benzimidazole]	–	–	–	–	–	–	CHIC18 [6, 13]: 34,3
CCCC(=O)c1ccccc1 [Butyrophenone]	–	–	–	–	–	–	CHIIAM [5, 12]: 32; CHIC18 [6, 13]: 87,5
CO[C@H]1/C=C/O[C@@]2(C)Oc3c(C)c(O)c4c(O)c(c(/C=N/N5CCN(C)CC5)c(O)c4c3C2=O)NC(=O)/C(C)=C\C=C\[C@H](C)[C@H](O)[C@@H](C)[C@@H](O)[C@@H](C)[C@H](OC(C)=O)[C@@H]1C [Rifampicin, reference compound]	–	–	–	–	0.5	64 (≈ 77.8 µM)	activity in words [4]: poor activity
Cn1c(=O)c2[nH]cnc2n(C)c1=O [Theophylline]	–	–	–	–	–	–	CHIC18 [6, 13]: 18,4
CCCCC(=O)c1ccccc1 [Valerophenone]	–	–	–	–	–	–	CHIIAM [5, 12]: 37.3; CHIC18 [6, 13]: 96,2
O=C(O)c1cn(C2CC2)c2cc(N3CCNCC3)c(F)cc2c1=O [Ciprofloxacin, reference compound]	–	–	–	–	–	–	CHIIAM [5, 14]: 19.70; log kIAM [5, 14]: 1.31; CHIC18 [6, 14]: 35.61
Cc1ccc(C(C)C)c(OCC(=O)N2CCN(c3cc4c(cc3F)c(=O)c(C(=O)O)cn4C3CC3)CC2)c1 [Compound 9]	2.38	43.58	129.41	5.33	256	256 (≈ 491 µM)	activity in words [3]: not active
CC1CCC(C(C)C)C(OC(=O)CCCCN2CCN(c3cc4c(cc3F)c(=O)c(C(=O)O)cn4C3CC3)CC2)C1 (stereo not drawn) [Compound 5]	2.62	48.95	134.85	5.61	4	4 (≈ 7.02 µM)	–
NNC(=O)c1ccncc1 [Isoniazid, reference compound]	–	–	–	–	0.0625	0.5 (≈ 3.65 µM)	–
CC1CCC(C(C)C)C(OC(=O)CCN2CCN(c3cc4c(cc3F)c(=O)c(C(=O)O)cn4C3CC3)CC2)C1 (stereo not drawn) [Compound 3]	2.65	49.56	129.99	5.36	2	2 (≈ 3.69 µM)	–
CC1CCC(C(C)C)C(OC(=O)CCCN2CCN(c3cc4c(cc3F)c(=O)c(C(=O)O)cn4C3CC3)CC2)C1 (stereo not drawn) [Compound 4]	2.82	53.32	132.45	5.49	0.5	0.5 (≈ 0.9 µM)	–
